The target of one series is T1, human ETA receptor (Homo sapiens, UniProt P25101).
T1 construct: expressed in transfected cells; host or cells: CHO cells (membrane preparation)
T1 sequence (P25101 21-427): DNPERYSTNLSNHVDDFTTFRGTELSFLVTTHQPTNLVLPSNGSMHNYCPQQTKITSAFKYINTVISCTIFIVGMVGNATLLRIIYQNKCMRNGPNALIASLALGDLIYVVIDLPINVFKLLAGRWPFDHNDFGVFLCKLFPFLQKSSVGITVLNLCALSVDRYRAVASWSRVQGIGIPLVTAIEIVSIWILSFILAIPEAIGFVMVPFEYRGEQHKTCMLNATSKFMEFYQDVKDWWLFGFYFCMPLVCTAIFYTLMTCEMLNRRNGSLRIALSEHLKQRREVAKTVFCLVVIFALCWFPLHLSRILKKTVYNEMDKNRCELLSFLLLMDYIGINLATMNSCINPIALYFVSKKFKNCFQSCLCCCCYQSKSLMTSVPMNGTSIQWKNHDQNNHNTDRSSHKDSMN
The series is described as follows: ETA receptor binding assay (125I-ET1, membranes of receptor-expressing CHO cells). To be noted: cloned human ETA receptor, CHO cell membranes, 25 pM 125I-ET1, 25° C., 30 min. As for the experimental part: (§1) Cloned human ETA or ETB receptor-expressing CHO cells were employed for binding studies.
(§2) The ETA or ETB receptor-expressing CHO cells were grown in DMEM NUT MIX F12 medium (Gibco, No. 21331-020) with 10% fetal calf serum (PAA Laboratories GmbH, Linz, No. A15-022), 1 mM glutamine (Gibco No. 25030-024), 100 U/ml penicillin and 100 μg/ml streptomycin (Gibco, Sigma No. P-0781). After 48 hours, the cells were washed with PBS and incubated with 0.05% trypsin-containing PBS at 37° C. for 5 minutes. Neutralization with medium was then carried out, and the cells were collected by centrifugation at 300×g.
(§3) For the membrane preparation, the cells were adjusted to a concentration of 10^8 cells/ml of buffer (50 mM tris.HCL buffer, pH 7.4) and then disintegrated by ultrasound (Branson Sonifier 250, 40-70 seconds/constant/output 20).
(§4) For the ETA and ETB receptor binding assays, the membranes were suspended in incubation buffer (50 mM tris-HCl, pH 7,4 with 5 mM MnCl2, 40 μg/ml bacitracin and 0.2% BSA) at a concentration of 50 μg of protein per assay mixture, and incubated with 25 pM ^125I-ET1 (ETA receptor assay) or 25 pM ^125I-ET3 (ETB receptor assay) in the presence and absence of test substance at 25° C. The nonspecific binding was determined with 10^−7 M ET1. Filtration was carried out after 30 min through GF/B glassfiber filters (Whatman, England) in a Skatron cell collector (Skatron, Lier, Norway) to separate free and bound radio ligands, and the filters were washed with ice-cold tris-HCl buffer, pH 7.4 with 0.2% BSA. The radioactivity collected on the filters was quantified using a
(§5) Packard 2200 CA liquid scintillation counter.

The target in another series is T2, human ETB receptor (Homo sapiens, UniProt P24530).
T2 construct: expressed in transfected cells; host or cells: CHO cells (membrane preparation)
T2 sequence (P24530 27-442): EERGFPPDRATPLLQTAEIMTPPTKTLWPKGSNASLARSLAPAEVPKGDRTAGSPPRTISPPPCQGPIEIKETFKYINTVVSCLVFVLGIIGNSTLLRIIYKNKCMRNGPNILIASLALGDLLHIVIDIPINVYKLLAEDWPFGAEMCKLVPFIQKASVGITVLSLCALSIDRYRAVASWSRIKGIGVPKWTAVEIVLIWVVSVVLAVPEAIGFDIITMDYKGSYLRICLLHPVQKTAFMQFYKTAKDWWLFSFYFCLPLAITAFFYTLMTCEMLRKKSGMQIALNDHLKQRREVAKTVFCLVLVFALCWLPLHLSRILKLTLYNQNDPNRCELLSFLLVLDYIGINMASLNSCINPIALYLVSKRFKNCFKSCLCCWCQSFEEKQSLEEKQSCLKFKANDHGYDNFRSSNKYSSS
The series is described as follows: ETB receptor binding assay (125I-ET3, membranes of receptor-expressing CHO cells). The conditions noted are these: cloned human ETB receptor, CHO cell membranes, 25 pM 125I-ET3, 25° C., 30 min. As for the experimental part:
as §1, §2, §3, §4, §5

For the compound `COc1nc(OC(C(=O)O)C(OCCc2ccc(C)cc2)(c2ccccc2)c2ccccc2)nc2c1CCO2` (centres unmarked) [Compound I-370, 2-(4-Methoxy-5,6-dihydrofuro(2,3d)-2-pyrimidinyloxy)-3-(2-(4-methylphenyl)ethoxy)-3,3-diphenylpropionic Acid], the melting point lay in the range of 128 to 130 °C. At human ETA receptor, this compound showed a Ki of 11 nM. Further, the inhibition constant Ki at human ETB receptor turned out to be 54 nM.

Turning to `COc1ccc(CCOC(c2ccccc2)(c2ccccc2)C(Oc2nc(C)cc(C)n2)C(=O)O)cc1OC` (centres unmarked) [Compound I-445], the melting point is 125 to 130 °C (dec.). Moreover, the Ki at human ETA receptor came out at 3.5 nM. The Ki on human ETB receptor turned out to be 7.2 nM.

`COc1cc(CCOC(c2ccc(Cl)cc2)(c2ccc(Cl)cc2)C(Oc2nc(OC)c3c(n2)OCC3)C(=O)O)cc(OC)c1` (centres unmarked) [Compound I-593, 2-(4-Methoxy-5,6-dihydrofuro(2,3d)-2-pyrimidinyloxy)-3-(2-(3,5-dimethoxyphenyl)ethoxy)-3,3-di(4-chlorophenyl)propionic Acid] registered a melting point of 90 to 100 °C. The same compound had a Ki on human ETA receptor of 300 nM. Besides, at human ETB receptor, the affinity corresponds to a Ki of 160 nM.

For the compound `COc1ccc(CCOC(c2ccccc2)(c2ccccc2)C(Oc2nc(C)cc(OC)n2)C(=O)O)cc1` (centres unmarked) [Compound I-622, 2-(4-Methoxy-6-methyl-2-pyrimidinyloxy)-3-(2-(4-methoxyphenyl)ethoxy)-3,3-diphenylpropionic Acid], the results for the inhibitory constant (Ki) on human ETA receptor and on human ETB receptor were 3 nM and 23 nM, respectively.

`COc1ccc(CCOC(c2ccc(Cl)cc2)(c2ccc(Cl)cc2)C(Oc2nc(OC)c3c(n2)OCC3)C(=O)O)cc1OC` (centres unmarked) [Compound I-635, 2-(4-Methoxy-5,6-dihydrofuro(2,3d)-2-pyrimidinyloxy)-3-(2-(3,4-dimethoxyphenyl)ethoxy)-3,3-di(4-chlorophenyl)propionic Acid] had a melting point of 100 to 110 °C. Besides, at human ETA receptor, the affinity corresponds to a Ki of 210 nM. Moreover, the affinity on human ETB receptor corresponds to a Ki of 126 nM.

As for `Cc1cc(C)nc(OC(C(=O)O)C(OCCc2ccc(C(C)C)cc2)(c2ccccc2)c2ccccc2)n1` (centres unmarked) [Compound I-672, 2-(4,6-Dimethyl-2-pyrimidinyloxy)-3-(2-(4-i-propylphenyl)ethoxy)-3,3-diphenylpropionic Acid], the Ki on human ETA receptor was 60 nM; at human ETB receptor, 185 nM.

The compound `COc1cc(C)nc(OC(C(=O)O)C(OCCc2ccc(OC)c(OC)c2)(c2ccc(Cl)cc2)c2ccc(Cl)cc2)n1` (centres unmarked) [Compound I-699, 2-(4-Methoxy-6-methyl-2-pyrimidinyloxy)-3-(2-(3,4-dimethoxyphenyl)ethoxy)-3,3-di(4-chlorophenyl)propionic Acid] gave a melting point of 100 to 110 °C. The same compound registered a Ki on human ETA receptor of 230 nM. At human ETB receptor, the affinity, expressed as Ki, was 130 nM.

With `Cc1cc(C)nc(OC(C(=O)O)C(OCCc2ccc(Cl)cc2)(c2ccccc2)c2ccccc2)n1` (centres unmarked) [Compound I-713, 2-(4,6-Dimethyl-2-pyrimidinyloxy)-3-(2-(4-chlorophenyl)ethoxy)-3,3-diphenylpropionic Acid], the melting point was 108 °C (dec.). The same compound showed a Ki on human ETA receptor of 20 nM. This compound also yielded a Ki at human ETB receptor of 96 nM.

In the case of `COc1ccc(CCOC(c2ccccc2)(c2ccccc2)[C@@H](Oc2nc(C)cc(C)n2)C(=O)O)cc1OC` [I-445 (R) enantiomer], the inhibitory constant (Ki) at human ETA receptor came out at 65 nM; at human ETB receptor it was 140 nM.

In the case of `COc1ccc(CCOC(c2ccccc2)(c2ccccc2)[C@H](Oc2nc(C)cc(C)n2)C(=O)O)cc1OC` [I-445 (S) enantiomer, (S)-2-(4,6-Dimethylpyrimidin-2-yloxy)-3-(2-(3,4-dimethoxyphenyl)ethoxy)-3,3-diphenylpropionic Acid], the Ki on human ETA receptor was determined as 1.3 nM; at human ETB receptor, 4.1 nM.

Broadly, the melting point is the temperature, or range, at which the solid turns liquid. The term Ki denotes a measure of affinity in units of concentration, obtained from inhibition or displacement.

The values are drawn from patent US6670367B1, “Azinyloxy, and phenoxy-diaryl-carboxylic acid derivatives, their preparation and use as mixed ETA/ETB endothelin receptor antagonists” (Abbott GmbH & Co., KG, priority 1996, dated 2003).
